Experimental data: ChEMBL document CHEMBL4706511, “Structure-based design, synthesis and bioactivity evaluation of macrocyclic inhibitors of mutant isocitrate dehydrogenase 2 (IDH2) displaying activity in acute myeloid leukemia cells” (Eur J Med Chem, 2020)
Changes are numbered by the printed parent chain. pIC50: −log10 of the molar value.

Columns and labels:
[1] = system: T1, Isocitrate dehydrogenase [NADP], mitochondrial (Homo sapiens), P48735 [R140Q]; experiment: Potency index, ratio of AG-221 IC50 to test compound IC50 for IDH2 R140Q mutant (unknown origin) assessed as reduction in NADPH consumption using alpha-ketoglutarate and NADPH as substrate preincubated with enzyme for 15 mins followed by substrate addition by fluorescence based assay
T1 sequence (whole entry): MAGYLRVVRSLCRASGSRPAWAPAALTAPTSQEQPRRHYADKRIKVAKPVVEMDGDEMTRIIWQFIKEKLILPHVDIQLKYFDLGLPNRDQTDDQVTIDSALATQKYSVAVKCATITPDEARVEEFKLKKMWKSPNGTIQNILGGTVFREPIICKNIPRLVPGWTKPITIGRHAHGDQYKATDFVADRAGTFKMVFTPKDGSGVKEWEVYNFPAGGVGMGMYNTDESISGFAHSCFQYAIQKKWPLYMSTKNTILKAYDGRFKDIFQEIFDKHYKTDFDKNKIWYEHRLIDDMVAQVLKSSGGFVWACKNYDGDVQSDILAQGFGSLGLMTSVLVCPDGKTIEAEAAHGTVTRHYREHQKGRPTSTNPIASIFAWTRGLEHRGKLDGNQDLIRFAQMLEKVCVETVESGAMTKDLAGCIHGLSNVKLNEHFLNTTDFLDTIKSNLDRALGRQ

[2] = molecular target: Isocitrate dehydrogenase [NADP], mitochondrial (Homo sapiens, UniProt P48735, R140Q); experiment: Inhibition of IDH2 R140Q mutant (unknown origin) assessed as reduction in NADPH consumption using alpha-ketoglutarate and NADPH as substrate preincubated with enzyme for 15 mins followed by substrate addition by fluorescence based assay
[3] = molecular target: Isocitrate dehydrogenase [NADP], mitochondrial (Homo sapiens, UniProt P48735, R172K); experiment: Inhibition of IDH2 R172K mutant (unknown origin) assessed as reduction in NADPH consumption using alpha-ketoglutarate and NADPH as substrate preincubated with enzyme for 15 mins followed by substrate addition by fluorescence based assay
Sequence of Isocitrate dehydrogenase [NADP], mitochondrial (Homo sapiens, UniProt P48735, R172K) (P48735 40-452 R172K limits assumed): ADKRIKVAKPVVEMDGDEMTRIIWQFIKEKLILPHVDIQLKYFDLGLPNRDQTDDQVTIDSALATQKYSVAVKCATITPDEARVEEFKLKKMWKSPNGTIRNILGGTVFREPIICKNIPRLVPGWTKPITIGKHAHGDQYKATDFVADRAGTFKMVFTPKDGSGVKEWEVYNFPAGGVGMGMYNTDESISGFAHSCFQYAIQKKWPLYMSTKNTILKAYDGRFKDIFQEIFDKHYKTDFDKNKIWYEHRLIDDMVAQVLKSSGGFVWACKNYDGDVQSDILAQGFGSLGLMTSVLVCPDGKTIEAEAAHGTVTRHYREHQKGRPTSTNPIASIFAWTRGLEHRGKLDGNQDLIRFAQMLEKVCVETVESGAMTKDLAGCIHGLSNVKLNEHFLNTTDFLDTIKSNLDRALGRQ

[4] = molecular target: T2, Isocitrate dehydrogenase [NADP], mitochondrial (Homo sapiens, UniProt P48735); experiment: Inhibition of wild type IDH2 (unknown origin) assessed as reduction in NADPH production using sodium(D)-isocitrate and NADP as substrate preincubated with enzyme for 15 mins followed by substrate addition by fluorescence based assay
T2 sequence (P48735 whole entry): T1 sequence (whole entry) with Q140R

[5] = Metabolic stability in human liver microsomes assessed as parent compound remaining at 100 ug/ml measured after 15 mins in presence of NADPH by LC-MS analysis; assay type: ADME, Microsome; details: at 100 µg/mL, read-out: Stabilty
[6] = Metabolic stability in human liver microsomes assessed as parent compound remaining at 100 ug/ml measured after 45 mins in presence of NADPH by LC-MS analysis; assay type: ADME, Microsome; details: at 100 µg/mL, read-out: Stabilty
[7] = Metabolic stability in human liver microsomes assessed as parent compound remaining at 100 ug/ml measured after 90 mins in presence of NADPH by LC-MS analysis; assay type: ADME, Microsome; details: at 100 µg/mL, read-out: Stabilty
[8] = Tmax in Sprague-Dawley rat at 10 mg/kg, po measured up to 24 hrs by LC-MS/MS analysis; assay type: ADME, organism-based; details: in vivo
[9] = Half life in Sprague-Dawley rat at 10 mg/kg, po measured up to 24 hrs by LC-MS/MS analysis; assay type: ADME, organism-based; details: in vivo
[10] = Half life in Sprague-Dawley rat at 1 mg/kg, iv measured up to 24 hrs by LC-MS/MS analysis; assay type: ADME, organism-based; details: in vivo
[11] = Cmax in Sprague-Dawley rat at 10 mg/kg, po measured up to 24 hrs by LC-MS/MS analysis; assay type: ADME, organism-based; set-up: route oral, dose 10 mg/kg, time <=24; details: in vivo
[12] = Cmax in Sprague-Dawley rat at 1 mg/kg, iv measured up to 24 hrs by LC-MS/MS analysis; assay type: ADME, organism-based; set-up: route intravenous, dose 1 mg/kg, time <=24; details: in vivo
[13] = AUC (0 to t) in Sprague-Dawley rat at 10 mg/kg, po measured up to 24 hrs by LC-MS/MS analysis; assay type: ADME, organism-based; set-up: route oral, dose 10 mg/kg, time <=24; details: in vivo
[14] = AUC (0 to t) in Sprague-Dawley rat at 1 mg/kg, iv measured up to 24 hrs by LC-MS/MS analysis; assay type: ADME, organism-based; set-up: route intravenous, dose 1 mg/kg, time <=24; details: in vivo
[15] = AUC (0 to infinity) in Sprague-Dawley rat at 10 mg/kg, po measured up to 24 hrs by LC-MS/MS analysis; assay type: ADME, organism-based; set-up: route oral, dose 10 mg/kg, time <=24; details: in vivo
[16] = AUC (0 to infinity) in Sprague-Dawley rat at 1 mg/kg, iv measured up to 24 hrs by LC-MS/MS analysis; assay type: ADME, organism-based; set-up: route intravenous, dose 1 mg/kg, time <=24; details: in vivo
[17] = MRT (0 to t) in Sprague-Dawley rat at 10 mg/kg, po measured upto 24 hrs by LC-MS/MS analysis; assay type: ADME, organism-based; details: in vivo
[18] = MRT (0 to t) in Sprague-Dawley rat at 1 mg/kg, iv measured upto 24 hrs by LC-MS/MS analysis; assay type: ADME, organism-based; details: in vivo
[19] = Oral bioavailability Sprague-Dawley rat at 10 mg/kg measured up to 24 hrs by LC-MS/MS analysis; assay type: ADME, organism-based; details: in vivo

Row | Compound | Ratio IC50 [1] | pIC50 [2] | pIC50 [3] | pIC50 [4] | remaining at 0.25 h, 100 ug/ml [5] [%] | remaining at 0.75 h, 100 ug/ml [6] [%] | remaining at 1.5 h, 100 ug/ml [7] [%] | Tmax [8] [h] | half-life [9] [h] | t1/2 [10] [h] | Cmax [11] [ng/mL] | Cmax [12] [ng/mL] | AUC(0-t) at 24 h [13] [ng·h/mL] | AUC(0-t) at 24 h [14] [ng·h/mL] | AUC(0-inf) [15] [ng·h/mL] | AUC [16] [ng·h/mL] | MRT last at 24 h [17] [h] | MRT(t) [18] [h] | bioavailability [19] [%]
1 | FC(F)(F)c1cc2cc(c1)Nc1nc(nc(-c3cccc(C(F)(F)F)n3)n1)NCCCCCC2 | 6 | – | – | – | – | – | – | – | – | – | – | – | – | – | – | – | – | – | –
2 | FC(F)(F)c1cc2cc(c1)Nc1nc(nc(-c3cccc(C(F)(F)F)n3)n1)NCCC/C=C/C2 | 3 | 7.86 | 7.76 | 4.85 | > 99 | 91 | 90 | – | – | – | – | – | – | – | – | – | – | – | –
3 | CS(=O)(=O)O.FC(F)(F)c1cc2cc(c1)Nc1nc(nc(-c3cccc(C(F)(F)F)n3)n1)NCCCCCC2 | – | 7.22 | 7.11 | – | – | – | – | 1.33 | 6.63 | 0.22 | 237 | 1255.13 | 2700 | 1370 | 2750 | 1372.5 | 6.03 | 2.4 | 19.8
